Activity calls are given as the source filed them.
Experiments:
[1] = Antioxidant activity assessed as DPPH radical scavenging activity at 125 to 1000 uM by microplate method; format: functional; conditions: dose microM 125-1000
[2] = test system: Mus musculus; experiment: Anticonvulsant activity in ip dosed mouse assessed as protection against current-induced seizure by maximal electroshock seizure test; format: functional
[3] = Toxicity in mouse assessed as lethality at 50 mg/kg, ip; format: organism-based; conditions: in vivo
[4] = Toxicity in ip dosed mouse assessed as motor impairment by rotarod test; format: organism-based; conditions: in vivo
[5] = Protection index, ratio of TD50 for toxicity in ip dosed mouse to ED50 for anticonvulsant activity in ip dosed mouse; format: organism-based; conditions: in vivo, read-out: PI
[6] = test system: Mus musculus; experiment: Antiallodynic activity in mouse model of OXA-induced peripheral neuropathy assessed as mean latency time to nocifensive response at 15 mg/kg, ip administered after 3 hrs of OXA stimulation and measured after 1 hr by cold plate method (reference value: 59.76 +/- 0.16 sec); format: functional
[7] = test system: Mus musculus; experiment: Antiallodynic activity in mouse model of OXA-induced peripheral neuropathy assessed as mean paw withdrawal threshold at 15 mg/kg, ip administered after 3 hrs of OXA stimulation and measured after 1 hr by Von-frey method (reference value: 3.144 +/- 0.169 g); format: functional
[8] = test system: Mus musculus; experiment: Antiallodynic activity in mouse model of OXA-induced peripheral neuropathy assessed as mean latency time to nocifensive response at 15 mg/kg, ip administered after 7 days of OXA stimulation and measured after 1 hr by cold plate method (reference value: 57.64 +/- 1.267 sec); format: functional
[9] = test system: Mus musculus; experiment: Antiallodynic activity in mouse model of OXA-induced peripheral neuropathy assessed as mean paw withdrawal threshold at 15 mg/kg, ip administered after 7 days of OXA stimulation and measured after 1 hr by Von-frey method (reference value: 3.192 +/- 0.181 g); format: functional
[10] = molecular target: T1, 5-hydroxytryptamine receptor 1A (Homo sapiens, UniProt P08908); experiment: Binding affinity to 5-HT1A (unknown origin)
T1 sequence (P08908 whole entry): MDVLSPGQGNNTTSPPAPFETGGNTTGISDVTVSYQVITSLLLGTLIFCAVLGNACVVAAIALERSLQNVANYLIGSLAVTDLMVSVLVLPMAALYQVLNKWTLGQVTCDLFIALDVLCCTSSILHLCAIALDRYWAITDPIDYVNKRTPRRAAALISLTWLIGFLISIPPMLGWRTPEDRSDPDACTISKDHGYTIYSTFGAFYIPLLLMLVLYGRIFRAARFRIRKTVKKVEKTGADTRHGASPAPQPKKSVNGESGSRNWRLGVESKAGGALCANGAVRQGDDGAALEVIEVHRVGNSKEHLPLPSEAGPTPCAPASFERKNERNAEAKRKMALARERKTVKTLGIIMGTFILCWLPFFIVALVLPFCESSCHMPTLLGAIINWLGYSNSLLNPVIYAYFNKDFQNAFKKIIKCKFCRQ

[11] = Drug metabolism in mouse microsome assessed as formation of monohydroxylated metabolite; format: ADME; conditions: microsomes
[12] = in vitro; conditions: mouse, microsomes
Description: Metabolic stability in mouse microsome assessed as half life

[13] = in vitro; conditions: mouse, microsomes; remark: listed apart in the source
Description: Metabolic stability in mouse microsome assessed as intrinsic clearance

[14] = test system: Mus musculus; experiment: Anticonvulsant activity in ip dosed albino mouse assessed as protection against 50 mA current-induced seizure by maximal electroshock seizure test; format: functional
[15] = Toxicity in mouse assessed as lethality at 10 mg/kg, ip; format: organism-based; conditions: in vivo
[16] = Toxicity in mouse assessed as lethality at 30 mg/kg, ip; format: organism-based; conditions: in vivo
[17] = test system: Mus musculus; experiment: Antiallodynic activity in mouse model of OXA-induced peripheral neuropathy assessed as mean latency time to nocifensive response at 18 mg/kg, ip administered after 3 hrs of OXA stimulation and measured after 1 hr by cold plate method (reference value: 59.76 +/- 0.16 sec); format: functional
[18] = test system: Mus musculus; experiment: Antiallodynic activity in mouse model of OXA-induced peripheral neuropathy assessed as mean paw withdrawal threshold at 18 mg/kg, ip administered after 3 hrs of OXA stimulation and measured after 1 hr by Von-frey method (reference value: 3.144 +/- 0.169 g); format: functional
[19] = test system: Mus musculus; experiment: Antiallodynic activity in mouse model of OXA-induced peripheral neuropathy assessed as mean latency time to nocifensive response at 18 mg/kg, ip administered after 7 days of OXA stimulation and measured after 1 hr by cold plate method (reference value: 57.64 +/- 1.267 sec); format: functional
[20] = test system: Mus musculus; experiment: Antiallodynic activity in mouse model of OXA-induced peripheral neuropathy assessed as mean paw withdrawal threshold at 18 mg/kg, ip administered after 7 days of OXA stimulation and measured after 1 hr by Von-frey method (reference value: 3.192 +/- 0.181 g); format: functional
[21] = test system: Enterococcus faecalis; experiment: Antimicrobial activity against Enterococcus faecalis ATCC 29212 assessed as reduction in bacterial growth at 0.195 to 100 ug/ml by serial dilution method; format: organism-based; conditions: in vivo, dose 0.195-100 µg/ml
[22] = test system: Escherichia coli; experiment: Antimicrobial activity against Escherichia coli ATCC 25922 assessed as reduction in bacterial growth at 0.195 to 100 ug/ml by serial dilution method; format: organism-based; conditions: in vivo, dose 0.195-100 µg/ml
[23] = test system: Escherichia coli; experiment: Antimicrobial activity against Escherichia coli ATCC 35218 assessed as reduction in bacterial growth at 0.195 to 100 ug/ml by serial dilution method; format: organism-based; conditions: in vivo, dose 0.195-100 µg/ml
[24] = test system: Staphylococcus aureus; experiment: Antimicrobial activity against Staphylococcus aureus ATCC 25923 assessed as reduction in bacterial growth at 0.195 to 100 ug/ml by serial dilution method; format: organism-based; conditions: in vivo, dose 0.195-100 µg/ml
[25] = test system: Staphylococcus aureus; experiment: Antimicrobial activity against clinical strain Staphylococcus aureus assessed as reduction in bacterial growth at 0.195 to 100 ug/ml by serial dilution method; format: organism-based; conditions: in vivo, dose 0.195-100 µg/ml
[26] = test system: Salmonella enterica; experiment: Antimicrobial activity against Salmonella enterica ATCC 51957 assessed as reduction in bacterial growth at 0.195 to 100 ug/ml by serial dilution method; format: organism-based; conditions: in vivo, dose 0.195-100 µg/ml
[27] = test system: Bacteroides fragilis; experiment: Antimicrobial activity against Bacteroides fragilis ATCC 25285 assessed as reduction in bacterial growth at 0.195 to 100 ug/ml by disk diffusion method; format: organism-based; conditions: in vivo, dose 0.195-100 µg/ml
[28] = test system: Hoylesella loescheii; experiment: Antimicrobial activity against Prevotella loescheii ATCC 15930 assessed as reduction in bacterial growth at 0.195 to 100 ug/ml by disk diffusion method; format: organism-based, DSM 19665 = JCM 12249 = ATCC 15930; conditions: in vivo, dose 0.195-100 µg/ml
[29] = Antimicrobial activity against clinical strain Bifidobacterium assessed as reduction in bacterial growth at 0.195 to 100 ug/ml by disk diffusion method; conditions: dose 0.195-100 µg/ml
[30] = test system: Clostridioides difficile; experiment: Antimicrobial activity against clinical strain Clostridium difficile assessed as reduction in bacterial growth at 0.195 to 100 ug/ml by disk diffusion method; format: organism-based; conditions: in vivo, dose 0.195-100 µg/ml

| Structure (SMILES) | Activity [1] | ED50 [2] [mg/kg] | Activity [3] | TD50 [4] [mg/kg] | selectivity ratio [5] | Ki [10] [nM] | Drug metabolism [11] | half-life [12] [min] | microsomal CLint [13] [µL/min/mg] | further results |
| --- | --- | --- | --- | --- | --- | --- | --- | --- | --- | --- |
| Cc1cc(C)c(OCCCN[C@@H]2CCCC[C@H]2O)c(C)c1 (relative stereo) | inactive | 14.8 | Non-Toxic | 42.9 | 2.9 | 2370 | Metabolite_Detected | 27.2 | 128 | Time [6]: 19.35 s; Activity [7]: 1.999 g; Time [8]: 7.09 s; Activity [9]: 1.958 g |
| Cc1ccc(OCCCN2CCC(O)CC2)c(C)c1 |  |  | Non-Toxic |  |  |  |  |  |  |  |
| CC(C)NC[C@H](O)COc1cccc2ccccc12 [LEVOPROPRANOLOL] |  |  |  |  |  |  |  |  |  | ED50 [14]: 19.2 mg/kg |
| Cc1cc(C)c(OCCCN2CCCC(O)C2)c(C)c1.Cl (racemic) | inactive | 18.2 |  | 70.2 | 3.86 | 3390 | Metabolite_Detected | 38.9 | 44.5 | Activity [15]: Non-Toxic; Activity [16]: Non-Toxic; Time [17]: 18.18 s; Activity [18]: 1.958 g; Time [19]: 10.65 s; Activity [20]: 1.947 g; Activity [21]: Non-Toxic; Activity [22]: Non-Toxic; Activity [23]: Non-Toxic; Activity [24]: Non-Toxic; Activity [25]: Non-Toxic; Activity [26]: Non-Toxic; Activity [27]: Non-Toxic; Activity [28]: Non-Toxic; Activity [29]: Non-Toxic; Activity [30]: Non-Toxic |
| O=C1NC(=O)C(c2ccccc2)(c2ccccc2)N1 [PHENYTOIN] |  |  |  |  | 8.56 |  |  |  |  |  |
| CC[C@@H](CO)NCCOCCOc1ccc(C)cc1C.Cl |  | 40.5 |  | 94.4 | 2.33 |  |  |  |  |  |

Source: ChEMBL document CHEMBL4725268, “Anticonvulsant and analgesic in neuropathic pain activity in a group of new aminoalkanol derivatives” (Bioorg Med Chem Lett, 2020)
